Measured values: patent US20070134349A1, “Methods of treating hematological malignancies” (DUKE UNIVERSITY, priority 2005, published 2007)

Experiments:
NB4 cells [1] = experiment: Differentiation markers CD11c/CD11b by flow cytometry in NB4 cells; assay type: cell-based; conditions: for NB4 cell differentiation (CD11c): 21 h; for NB4 differentiation: FIG. 10
Experimental: (§1) NB4 cells were provided by Dr. Ronald Evans (Salk Institute, La Jolla, Calif.). NB4-R4 cells were provided by Dr. Wilson Miller (McGill University, Montreal, Canada). HL-60, U-937, and Kasumi-1 cells were obtained from the American Type Culture Collection (Rockville, Md.). NB4 and NB4-R4 cells were grown in RPMI medium 1640 containing 10% fetal bovine serum. U-937 cells were grown in RPMI medium 1640 containing 10 mM HEPES, 1 mM sodium pyruvate, 4.5 g/L glucose, and 10% fetal bovine serum. HL-60 cells were grown in Iscove's Modified Dulbecco's medium containing 20% fetal bovine serum. Kasumi-1 cells were grown in RPMI medium 1640 containing 10 mM HEPES, 1 mM sodium pyruvate, 4.5 g/L glucose, and 20% fetal bovine serum.
(§2) To determine the percentage of cells that express differentiation markers, cells were washed once and resuspended in RPMI medium 1640 containing 3% fetal bovine serum. Phycoerythrin (PE)-conjugated CD11b, 5 Allophycocyanin (APC)-CD11c or control antibodies (BD Pharmingen, San Diego, Calif.) were added into cell suspension. After 30 minutes of incubation in the dark at 4° C., the cells were washed twice and resuspended in RPMI medium 1640 containing 7-amino actinomycin D (AAD) (for dead cell exclusion) and analyzed by FACScan (Becton Dickinson).

NB4-R4 cells = experiment: CD11c/CD11b expression by flow cytometry in ATRA-resistant NB4-R4 cells; assay type: cell-based; conditions: ATRA treatment, 3 days
Experimental: as §1, §2

RARE-TK-Luc reporter = RARE-TK-Luc reporter transient transfection in NB4 cells; assay type: cell-based; conditions: ATRA 1 μM, 19 h
Experimental: Electroporation was performed using a Gene Pulser (BioRad, Hercules, Calif.) apparatus at 300 V and 960 μF capacity. […] Cells were harvested 19 h after transfection/treatment for luciferase and β-galactosidase activities.

PML-RARα = molecular target: T1, PML-RARα (Homo sapiens, UniProt P10276+P29590); experiment: Western blot of PML-RARα and RARα in NB4 cells; assay type: cell-based; conditions: 3 days
T1 construct: PML portion (fusion partner, UniProt P29590); endogenous in cells; host or cells: NB4 cells
T1 sequence (P29590+P10276 with tags, fused parts or gaps): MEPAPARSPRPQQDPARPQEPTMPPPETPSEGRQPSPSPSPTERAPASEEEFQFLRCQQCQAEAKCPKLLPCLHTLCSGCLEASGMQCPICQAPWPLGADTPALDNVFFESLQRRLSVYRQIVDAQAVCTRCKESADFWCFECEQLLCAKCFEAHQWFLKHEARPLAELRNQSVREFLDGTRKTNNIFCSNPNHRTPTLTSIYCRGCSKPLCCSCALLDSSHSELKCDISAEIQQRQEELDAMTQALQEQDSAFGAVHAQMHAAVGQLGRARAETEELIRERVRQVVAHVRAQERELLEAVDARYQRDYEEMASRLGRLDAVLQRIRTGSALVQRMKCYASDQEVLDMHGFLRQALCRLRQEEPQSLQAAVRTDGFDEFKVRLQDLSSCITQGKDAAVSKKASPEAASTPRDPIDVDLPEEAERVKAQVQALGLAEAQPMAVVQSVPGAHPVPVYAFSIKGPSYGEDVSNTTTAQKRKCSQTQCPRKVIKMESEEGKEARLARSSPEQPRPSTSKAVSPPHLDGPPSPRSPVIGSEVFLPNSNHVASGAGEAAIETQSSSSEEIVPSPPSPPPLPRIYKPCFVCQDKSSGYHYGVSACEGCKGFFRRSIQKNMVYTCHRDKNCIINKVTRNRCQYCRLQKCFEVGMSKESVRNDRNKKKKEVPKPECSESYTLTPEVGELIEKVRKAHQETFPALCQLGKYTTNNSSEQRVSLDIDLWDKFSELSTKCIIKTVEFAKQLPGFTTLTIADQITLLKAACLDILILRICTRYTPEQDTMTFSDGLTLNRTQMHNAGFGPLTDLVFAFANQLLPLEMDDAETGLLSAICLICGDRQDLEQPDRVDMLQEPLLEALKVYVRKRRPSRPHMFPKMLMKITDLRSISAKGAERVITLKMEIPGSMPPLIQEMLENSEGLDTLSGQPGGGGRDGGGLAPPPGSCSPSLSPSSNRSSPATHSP
Experimental: (§3) Whole-cell lysates were prepared by washing the cells with PBS and resuspending them in 1 ml of lysis buffer (1× phosphate-buffered saline, 1 mM EDTA, 1.5 mg/ml of iodoacetamide, 100 μM sodium orthovanadate, 0.5% Triton X-100, 20 mM β-glycerolphosphate, 0.2 mM phenylmethylsulfonyl fluoride, and 1× complete protease inhibitor cocktail). After clarification by a 15-min centrifugation in a microcentrifuge at 4° C., the resulting supernatant was collected. 20-50 μg of protein extracts were separated on a 10% SDS-polyacrylamide gel and transferred to a nitrocellulose membrane. The membrane was blocked with 5% nonfat milk followed by incubation with antibodies. The immunocomplex was visualized by chemiluminescence.

H3 [2] = experiment: Western blot of phospho-H3 (Ser-10) in NB4 cells; assay type: cell-based; conditions: for H3 phosphorylation (Ser-10): NB4 cells, 24 h
Experimental: as §3

U-937 cells [3] = experiment: CD11c expression by flow cytometry in U-937 cells; assay type: cell-based; conditions: lower concentrations, 3 days
Experimental: as §1, §2

H3 [4] = experiment: Western blot of acetyl-H3 and phospho-H3 in U-937 cells; assay type: cell-based; conditions: higher concentrations, 18 h
Experimental: as §3

Kasumi-1 cells = experiment: CD11c expression by flow cytometry in Kasumi-1 cells; assay type: cell-based; conditions: 3 days
Experimental: as §1, §2

U-937 cells [5] = experiment: Annexin V binding in U-937 cells; assay type: cell-based; conditions: higher concentrations, 3 days
Experimental: as §1
(§4) To determine the percentage of cells that undergo apoptosis, after incubation with APC-CD11c antibody in the dark at 4° C., cells were washed twice with PBS and incubated at room temperature for 15 min with PE-conjugated Annexin-V (BD Pharmingen) and 7-AAD in binding buffer (10 mM HEPES, pH 7.4, 140 mM NaCI, 2.5 mM CaCl2) and analyzed by FACScan for CD11c expression and Annexin V binding. Apoptotic cells are those that stained positive for Annexin V and negative for 7-AAD.

[6] = in humans; cited from earlier work
NB4 cells [7] = experiment: Apoptosis by Annexin V binding (flow cytometry) in NB4 cells; assay type: cell-based
Experimental: as §1, §4

ERK1/2 [8] = experiment: Western blot of phospho-ERK1/2 in NB4 cells; assay type: cell-based; conditions: 24 h
Experimental: as §3

histones H3 and H4 = experiment: Western blot of acetylated histones H3 and H4 in NB4 cells; assay type: cell-based; conditions: concentrations required for apoptosis, NB4 cells, 24 h
Experimental: as §3

HL-60 cells = experiment: CD11c expression by flow cytometry in HL-60 cells; assay type: cell-based; conditions: 48 h
Experimental: as §1, §2

ERK1/2 [9] = experiment: Western blot of phospho-ERK1/2 in U-937 cells; assay type: cell-based; conditions: higher concentrations, 18 h, total ERK1/2 unaffected
Experimental: as §3

C/EBPβ = experiment: Western blot of phospho-C/EBPβ (Thr-235) and C/EBPβ in NB4 cells; assay type: cell-based
Experimental: as §3

[10] = plasma, humans; cited from earlier work
[11] = p38 inhibitor treatment of NB4 cells (data not shown)

In the case of CC1=C(/C=C/C(C)=C/C=C/C(C)=C/C(=O)O)C(C)(C)CCC1 [ATRA, all-trans-Retinoic acid], the “effect on percentage of cells expressing CD11c compared with 1 nM MAA” value (NB4 cells [1]; 0.1 nM ATRA, NB4 cells, 24 h) is reported as “same order of magnitude”, the “percentage of cells expressing CD11b” value (NB4 cells [1]; ATRA 10 nM alone, NB4 cells, 24 h, from 26%) is reported as 51% and the “NB4 cell differentiation (CD11c)” value (NB4 cells [1]; ATRA 1 μM) is reported as “can induce NB4 cell differentiation”. For the same molecule, the “sensitivity of NB4-R4 cells versus NB4 parental line (CD11c, CD11b)” value (NB4-R4 cells) was “less sensitive”, the “transcription of RARE-containing reporter gene (RARE-TK-Luc)” value (RARE-TK-Luc reporter) was “can activate transcription” and the “expression level of PML-RARα fusion protein” value (PML-RARα) was “induced the degradation”.
In the case of CCCC(=O)O [BA, butyric acid], the “H3 phosphorylation (Ser-10)” value (H3 [2]; higher concentrations) is reported as “dramatically increased”, the “H3 phosphorylation (Ser-10)” value (H3 [2]; lower concentrations) is reported as “without effect” and the “differentiation (CD11c)” value (NB4 cells [1]; BA 0.5 mM and 1 mM, NB4 cells, 24 h) is reported as “differentiation was observed”. The “NB4 cell differentiation (CD11c)” value (NB4 cells [1]; BA 1 mM) was “can induce NB4 cell differentiation”, the “differentiation (CD11c)” value (NB4 cells [1]; BA 5 mM (or higher), NB4 cells, 24 h) was “failed to differentiate” and the NB4 differentiation (NB4 cells [1]; NB4 cells) was “potent inducers”. The “expression of the differentiation marker CD11c” value (U-937 cells [3]) was “increasing expression”, the “H3 acetylation and phosphorylation” value (H3 [4]) was “increase” and the “percentage of cells expressing CD11c” value (Kasumi-1 cells) was “increased”. The “apoptosis (Annexin V)” value (U-937 cells [5]) was “inducing apoptosis”, the tolerability [6] was “well-tolerated” and the “apoptosis (Annexin V)” value (NB4 cells [7]; BA 1 mM, NB4 cells, 21 h) was “effectively induces apoptosis”. For the same molecule, the “levels of phosphorylated ERK” value (ERK1/2 [8]; higher concentrations (no differentiating effects), total ERK not decreased) was “dramatically decreased”, the “constitutive levels of phosphorylated ERK” value (ERK1/2 [8]; lower concentrations) was “did not change” and the “H3 and H4 acetylation” value (histones H3 and H4) was “robust acetylation”. For the same molecule, the “differentiation as evidenced by expression of CD11c” value (HL-60 cells) was “induce differentiation”, the “activity of ERK1/2 (phospho-ERK1/2)” value (ERK1/2 [9]) was “downregulate” and the “level of phosphorylated C/EBPβ at Thr-235” value (C/EBPβ; 17 h) was “increases phosphorylation”. The “phosphorylation of C/EBPβ at Thr-235” value (C/EBPβ; lower concentrations, 24 h) was “maximal phosphorylation” and the “half-life in vivo t1/2” value [10] was 6 min.
With CCOCC(=O)O [ethoxyacetic acid] the NB4 differentiation (NB4 cells [1]; NB4 cells) was “potent inducers”.
For Phenylbutyrate, the tolerability [6] is given as “well-tolerated” and the “half-life in vivo t1/2” value [10] is given as 60 min.
For N#CC(=C(/N)Sc1ccccc1N)/C(C#N)=C(\N)Sc1ccccc1N [U0126], the ATRA-induced differentiation (NB4 cells [1]; U0126 pretreatment 2 h, then ATRA 1 μM 21 h, NB4 cells) was “less dramatic effect”, the “MAA and BA-dependent differentiation as assessed by CD11c expression” value (NB4 cells [1]; U0126 pretreatment 2 h, then MAA 5 mM or BA 1 mM 21 h, NB4 cells) was “dramatically reduced” and the “number of BA-treated cells undergoing apoptosis” value (NB4 cells [7]) was “significantly increased”. For the same molecule, the “MAA- or BA-induced phosphorylation of C/EBPβ at Thr-235” value (C/EBPβ; U0126 5 μM, 17 h, absolute protein level unchanged) was “blocks”.
In the case of [Na+].[Na+].[Na+].[O]=[V]([O-])([O-])[O-] [sodium orthovanadate], the “apoptosis of NB4 cells in response to HDACI treatment” value (NB4 cells [7]; tyrosine phosphatase inhibitor treatment (data not shown)) is reported as “did not inhibit”.
With CCC(=O)O [propionic acid] the NB4 differentiation (NB4 cells [1]; NB4 cells) was “potent inducers”.
With CCCC(CCC)C(=O)O [VPA, valproic acid] the “percentage of NB4 cells expressing CD11c” value (NB4 cells [1]; NB4 cells, FIG. 9) was “did not significantly increase” and the apoptosis (NB4 cells [7]; as concentrations increase, NB4 cells, FIG. 9) was “potently induces apoptosis”.
With arsenic trioxide [ATO] the “apoptosis (Annexin V)” value (NB4 cells [7]; ATO 0.1 μM, 0.5 μM alone, NB4 cells, 3 days) was “does not induce significant amount of apoptosis” and the “expression level of PML-RARα fusion protein” value (PML-RARα) was “induced the degradation”.
For C[S+]([O-])c1ccc(-c2nc(-c3ccncc3)c(-c3ccc(F)cc3)[nH]2)cc1 (centres unmarked) [SB203580], the “effect on H3 phosphorylation at Ser-10” value (H3 [2]; [11]) was “little effect” and the effect on apoptosis (NB4 cells [7]; [11]) was “little effect”.
For O=C(CCCCCCC(=O)Nc1ccccc1)NO [SAHA, suberoylanilide hydroxamic acid], the differentiation (NB4 cells [1]; SAHA at lower concentrations, NB4 cells (data not shown)) was “facilitated differentiation” and the apoptosis (NB4 cells [7]; SAHA at higher concentrations, NB4 cells (data not shown)) was “effectively induced apoptosis”.
In the case of COCCC(=O)O [3-methoxypropionic acid], the NB4 differentiation (NB4 cells [1]; NB4 cells) is reported as “potent inducers”.
